Results taken from publication PMC8840081, “Phenylalanine-Based AMPA Receptor Antagonist as the Anticonvulsant Agent with Neuroprotective Activity—In Vitro and In Vivo Studies” (Molecules, 2022).
Several values for one entry are separate records, joined by “and”; a condition that tells them apart may be missing. Equal entries are not always repeated.

Columns and labels:
[1] = tested on: SH-SY5Y neuroblastoma cells; test: neuroprotection against 6-OHDA-induced LDH release; assay type: cell-based, human; conditions: compound 50 µM
[2] = tested on: heat hyperalgesia in diabetic mice; test: diabetic (STZ) neuropathic pain model, hot plate test; assay type: in vivo; conditions: 30 mg/kg i.p.
Experimental: (§1) Behavioral experiments were carried out in male Albino Swiss (CD-1) mice weighing 18–22 g. The mice were kept in cages, in groups of 10 animals. They had free access to food and water before experiments, and were maintained at room temperature 22–24 °C, under 12:12 (light/dark) cycle. For the assays the animals were selected randomly. After the experiments the animals were euthanized by cervical dislocation. Experimental procedures for in vivo tests were approved by the Local Ethics Committee of the Jagiellonian University in Krakow (Approval No. 33/2018; release date: 1.02.2018) and the treatment of animals was performed in full accordance with ethical standards laid down in respective Polish and EU regulations (Directive 2010/63/EU).
Oxaliplatin was purchased from Activate Scientific GmbH (Prien, Germany). PTZ and STZ were provided by Merck KGaA (Darmstadt, Germany). […]
To induce type I diabetes and diabetic neuropathic pain, mice were administered STZ, an alkylating antitumor drug that destroys insulin-secreting islet cells. […] Blood glucose levels were measured 1 day before (referred to as ‘day 0′) and repeatedly 1, 2 and 3 weeks after STZ injection using a blood glucose monitoring system (AccuChek Active, Roche, France). […]
The effect of 1 on heat hyperalgesia was assessed using the hot plate test. […]

[3] = ferric reducing antioxidant power (FRAP) assay; conditions: % of ascorbic acid activity; compounds and AA at 1 mM
Experimental: The total antioxidant potential of aryl-substituted phenylalanine derivatives was determined using FRAP assay. The FRAP reagent was prepared first by mixing acetate buffer (300 mM, pH 3.6), a solution of 10 mM TPTZ (2,4,6-tripyridyl-s-triazine, Sigma-Aldrich, Inc., St. Louis, MO, USA) in 40 mM HCl and 20 mM of iron (III) chloride hexahydrate (FeCl3 × 6H2O, Chempur, Piekary Śląskie, Poland) at 10:1:1 (v/v/v). The FRAP reagent (190 μL) and 1 mM of tested compound (10 μL) was added next to each well, mixed and incubated for 30 min. The absorbance was measured using a microplate reader EnSpire (PerkinElmer, Waltham, MA USA) at 593 nm. AA (1 mM, AMARA, Kraków, Poland) was used as the reference antioxidant. The results were expressed as % of ascorbic acid activity (%AAA). Analyses were performed in triplicate. • ORAC-FL

[4] = tested on: 6-Hz psychomotor seizures in mice; test: 6-Hz test; assay type: in vivo; conditions: 100 mg/kg i.p.
Experimental: as §1
Oxaliplatin was purchased from Activate Scientific GmbH (Prien, Germany). PTZ and STZ were provided by Merck KGaA (Darmstadt, Germany). For the in vivo tests, the compound 1 was suspended in 1% Tween 80 solution (Polskie Odczynniki Chemiczne, Gliwice, Poland), then being administered intraperitoneally 1 h before tests. For the evaluation of anticonvulsant properties of the test compound, a fixed dose of 100 mg/kg, was used. Since many AEDs at lower doses are used as analgesic drugs, for pain tests the doses 10 and 30 mg/kg were selected.
This test was performed according to Barton et al.. […]

NC(Cc1cc(-c2cc(O)ccc2O)c(Cl)c([N+](=O)[O-])c1)C(=O)O (stereo not drawn) [Compound 1]
6-OHDA-induced release of LDH (neuroprotection) ([1]; 100 µM 6-OHDA): neuroprotective effect was not observed | 6-OHDA-induced release of LDH (neuroprotection) ([1]; 1 h pretreatment, 50 µM 6-OHDA, 24 h): statistically significant decrease | antihyperalgesic activity, hot plate test (latency to pain reaction) [2]: antihyperalgesic activity was not observed | FRAP (%AAA) [3]: 748.5 %AAA and 748.49 %AAA | Mortality rate (%) [4]: 0% | X/Y, number of mice protected (X) per number of mice tested (Y) ([4]; 1 h before test): 3/4
